The record followed here is patent publication US20060276465A1, “1,2-di(cyclic) substituted benzene compounds” (Eisai R&D Management Co., Ltd., priority 2003, published 2006).

The term IC50 denotes the concentration needed to halve the response being measured.

One experiment has as its system Jurkat cells. Put plainly: Jurkat cell adhesion system (adhesion to immobilized human fibronectin, PMA-stimulated). The format is cell-based. The note with it: concentration inhibiting by 50% the PMA-stimulated increase in the number of adhered Jurkat cells on human fibronectin; 45-60 minutes, 37° C. As to the method:
Evaluation of Compounds in Jurkat Cell Adhesion System
<Immobilization of Human Fibronectin in 96-Well Plate>
Human fibronectin (Becton Dickinson Biosciences) was diluted with phosphate-buffered saline (hereinafter abbreviated as PBS; Sigma) to 0.1-0.01 μg/ml, and the diluted solution was added to a 96-well plate (Becton Dickinson) at 50 μl/well, and allowed to stand overnight at 4° C. On the following day, the supernatant was removed from the plate, and then PBS containing 1% bovine serum albumin (hereinafter abbreviated as BSA; Sigma) was added thereto at 100 μl/well and incubation was performed at 37° C. for 2 hours in a CO2 incubator (Hirasawa).
The supernatant was removed from each plate and Jurkat cells suspended in RPMI-1640 (Sigma) containing 1 mg/ml BSA were added at 80 μl/well for 2.5×10^5 cells/well. The compound diluted to different concentrations with RPMI-1640 containing 1 mg/ml BSA was immediately added at 10 μl/well, and then 100 nM phorbol myristate acetate (hereinafter abbreviated as PMA; Sigma) in RPMI-1640 containing 1 mg/ml BSA was added at 10 μl/well and the plate was incubated in a CO2 incubator at 37° C. for 45-60 minutes. The supernatant was removed from the plate and each well was washed several times with 100 μl/well of RPMI-1640, after which 50 mM citrate buffer (pH 5.0) containing 3.75 mM p-nitrophenol-N-acetyl-β-D-glucosaminide (Sigma) and 0.25% Triton X-100 (Sigma) were added at 60 μl/well, and the mixture was placed in a CO2 incubator and incubated at 37° C. for 45 minutes. After incubation, 50 mM glycine buffer (pH 10.4) containing 5 mM EDTA was added at 90 μl/well, and the absorbance at 405 nm was measured with an EL340 Automated Microplate Reader (BIO-TEK) to determine the adhered cell count. The concentration of each compound which inhibited the increase in the number of adhered cells by the PMA-stimulation by 50% was recorded as the IC50 (μM).

A further experiment deals with Balb/c mice. Put plainly: DSS-induced colitis model. In kind it is in vivo. Conditions: male Balb/c mice; 1-3% DSS for 5-7 days; 30 mg/kg orally once a day for 5-7 successive days. The text has this: Evaluation of Compounds in DSS-Induced Colitis Model
A 1-3% solution of dextran sulfate sodium (hereinafter abbreviated as DSS; ICN) in purified water (Otsuka Pharmaceutical) was fed freely to 6- to 7-week-old male Balb/c mice (Charles River Japan) for 5-7 days to induce colitis. Disease Activity Index (hereinafter abbreviated as DAI) scored based on fecal hardness, blood content in feces and body weight change, the number of neutrophils infiltrating the colon and the length of the colon were used as indexes to evaluate compounds. Each compound was suspended or dissolved in an aqueous solution containing 0.5% methyl cellulose (Wako), and orally administered at 30 mg/kg once a day, for 5-7 successive days.

The molecule `COCCN1CCN(c2ccccc2C2CCC(C(C)(C)C)CC2)CC1.Cl` (centres unmarked) [Example 19, 1-[2-(4-t-Butylcyclohexyl)phenyl]-4-(2-methoxyethyl)piperazine hydrochloride] returned an IC50 in the experiment on Jurkat cells of 6.2 µM. Besides, in the experiment with Balb/c mice, the “improvement in comparison with the DSS control group (DAI, number of neutrophils infiltrating the colon, length of the colon)” value is “particularly good improvement”.
